Counter-ions that a name gives are not always drawn. Starred links: 1 amine or outer side, 2 acyl side, 3 side chain; linkers in the order of their positions; H or OH if unused. Positions of bridges follow the written chain, without caps; N, C: chain ends. Non-standard residues stand in square brackets, D forms with d. Residues, ends and D or L forms follow the SMILES beside them. Chains are numbered I, II in the order given. *: point of attachment. TATA = O=C(CC[*:1])N1CN(C(=O)CC[*:2])CN(C(=O)CC[*:3])C1; Dolaproine = CO[C@@H]([C@@H]1CCCN1)[C@@H](C)C(=O)O; Dil = CC[C@H](C)[C@H](NC)[C@@H](CC(=O)O)OC; 1Nal = N[C@@H](Cc1cccc2ccccc12)C(=O)O; X2 = O=C(CCCC(=O)[*:2])NCCC(=O)[*:1]; PABC = O=C(OCc1ccc(N[*:1])cc1)[*:2]; X1 = C[C@@H](N*)[C@@H](O)c1ccccc1; Hyp = O=C(O)[C@@H]1C[C@@H](O)CN1; hArg = N=C(N)NCCCC[C@H](N)C(=O)O; Cit = NC(=O)NCCC[C@H](N)C(=O)O; Pen = CC(C)(S)[C@H](N)C(=O)O; NMeV = CN[C@H](C(=O)O)C(C)C; hCys = N[C@@H](CCS)C(=O)O; Sar = CNCC(=O)O
How the values were obtained:
Human Nectin-4 = target: T1, Human Nectin-4 (Homo sapiens, UniProt Q96NY8); assay: Binding capacity to Nectin-4 protein (SPR, Biacore 8K)
T1 construct: purchased GE Healthcare 1006-72
T1 sequence (Q96NY8 32-510): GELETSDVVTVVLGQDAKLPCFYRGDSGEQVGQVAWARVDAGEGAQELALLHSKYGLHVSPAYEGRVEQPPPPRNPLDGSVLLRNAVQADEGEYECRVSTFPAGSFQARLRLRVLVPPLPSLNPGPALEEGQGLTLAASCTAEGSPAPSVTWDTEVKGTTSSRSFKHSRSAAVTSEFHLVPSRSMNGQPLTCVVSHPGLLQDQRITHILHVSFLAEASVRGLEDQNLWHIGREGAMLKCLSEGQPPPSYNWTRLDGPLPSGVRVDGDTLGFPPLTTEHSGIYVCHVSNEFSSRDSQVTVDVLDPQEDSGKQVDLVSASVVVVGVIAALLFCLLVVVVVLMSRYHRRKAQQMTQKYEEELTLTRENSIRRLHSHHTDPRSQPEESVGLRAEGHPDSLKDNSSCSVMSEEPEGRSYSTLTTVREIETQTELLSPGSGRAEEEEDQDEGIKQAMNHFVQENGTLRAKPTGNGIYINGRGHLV
Experimental: Test Example 1. Binding Capacity Test of the Compounds of the Present Invention to Nectin-4 Protein
To detect the affinity of the compound to be tested to the target protein Nectin-4 using the SPR method.
• Biacore 8K (GE Healthcare) • 96-well Plate (Cat #650101, greiner bio-one) • CM5 chip (Cat #BR-1005-30, GE Healthcare) • Amine Coupling Kit (Cat #BR-1000-50, GE Healthcare) • EDC • NHS • 1 M ethanolamine • 10 mM sodium acetate pH 4.5 (Cat #BR-1003-50, GE Healthcare) • DMSO (Cat #D4540, Sigma) • P20 (Cat #BR-1000-54, GE Healthcare) • PBS (Cat #BR-1006-72, GE Healthcare) • Nectin-4 (Cat #1006-72, GE Healthcare) 3. Experimental Protocol
In this experiment, the amino coupling method was used. The target protein Nectin-4 was directly immobilized on the CM5 chip using Biacore 8K. […] The final data were subjected to Kinetics fitting analysis based on a 1:1 model using Biacore Insight Evaluation Software (V 2.0.15.12933).
1) Preparation of the buffer: 10 mM PBS, pH 7.4, 137 mM NaCl, 2.7 mM KCl, 5% DMSO, and 0.05% P20.
2) Activation of the CM5 chip: The CM5 chip was activated with 400 mM EDC and 100 mM NHS at a flow rate of 10 μL/min for 420 seconds.
3) Coupling of the target protein: The target protein was diluted to 10 μg/mL with 10 mM sodium acetate (pH 4.5) and coupled at a flow rate of 10 μL/min for 284 s. The 1 #, 2 #, and 3 #channels on the chip were used in the experiment, and the coupling results were 1639.9RU, 1747.8RU, and 1702.2RU, respectively.
4) Blocking of the CM5 chip: The CM5 chip was blocked with 1 M ethanolamine at a flow rate of 10 μL/min for 420 seconds.
5) Analyte concentration: The compound to be tested was diluted with the buffer. The compound to be tested was diluted from 100 nM to 0.78 nM in a 2-fold gradient.
6) Sample injection analysis: Each concentration of the working solution of the compound to be tested corresponded to one cycle, with a flow rate of 30 μL/min for binding for 180 seconds and dissociating for 180 seconds. The last cycle was a 5% DMSO solvent correction cycle.
7) All results were subjected to kinetics fitting analysis based on a 1:1 model. […]

[1] = Pharmacokinetic analysis in rat plasma; assay type: in vivo, SD rats
Experimental: Test Example 5: Pharmacokinetic Analysis of the Compounds of the Present Invention in Rat Plasma
To test the pharmacokinetics of the compounds of the present invention in SD rats.
(§1) The pharmacokinetic characteristics of the compound after intravenous injection were tested in rats according to a standard protocol. The compound to be tested was formulated into a clear solution using 25 mM L-histidine (pH=7) in 10% sucrose as a vehicle. Two rats were given a single intravenous injection of 3 mg/kg of the compound to be tested. Whole blood was collected at time points of 0.083, 0.25, 0.5, 1, 2, 4, 8, and 24 hours after administration to get plasma. The concentration of the compound of the present invention and the concentration of its potential metabolite MMAE were analyzed by the LC-MS/MS method, and the pharmacokinetic parameters were calculated by Phoenix WinNonlin software.

[2] = Pharmacokinetic analysis in Cynomolgus macaque plasma; assay type: in vivo; conditions: Cynomolgus macaques, single IV 1 mg/kg of the compound
Experimental: Test Example 6: Pharmacokinetic Analysis in Cynomolgus Macaque Plasma
To test the pharmacokinetics of the compounds of the present invention in Cynomolgus macaques.
as §1, with “tested” for “tested in rats”, “standard protocol in Cynomolgus macaques.” for “standard protocol.”, “vehicle. Cynomolgus macaques” for “vehicle. Two rats”, “of 1” for “of 3”, “compound to be tested” for “compound of the present invention”

[3] = metabolite MMAE in SD rat plasma after single IV 3 mg/kg acetate salt of PDC_2

| SMILES | Kd (Human Nectin-4) [nM] | exposure of metabolite MMAE relative to exposure of the compound ([1]; SD rats, single IV 3 mg/kg) | AUC0-last [1, 3] [µM·h] | Cmax [1, 3] [nM] | MMAE release in blood [2] |
| --- | --- | --- | --- | --- | --- |
| CC[C@H](C)[C@@H]([C@@H](CC(=O)N1CCC[C@H]1[C@H](OC)[C@@H](C)C(=O)N[C@H](C)[C@@H](O)c1ccccc1)OC)N(C)C(=O)[C@@H](NC(=O)[C@H](C(C)C)N(C)C(=O)OCc1ccc(NC(=O)[C@H](CCCNC(N)=O)NC(=O)[C@@H](NC(=O)CCCC(=O)NCCC(=O)N(C)CC(=O)N(C)CC(=O)N(C)CC(=O)N(C)CC(=O)N(C)CC(=O)N(C)CC(=O)N(C)CC(=O)N(C)CC(=O)N(C)CC(=O)N(C)CC(=O)N[C@H]2CCCCNC(=O)C[C@@H](C(=O)N[C@H]3CSCCC(=O)N4CN5CN(C4)C(=O)CCSC(C)(C)[C@H](NC(=O)[C@@H](CC(=O)O)NC(=O)[C@H](Cc4cccc6ccccc46)NC(=O)[C@@H]4CCCN4C3=O)C(=O)N[C@@H](CCSC)C(=O)N[C@@H](CCCCNC(=N)N)C(=O)N[C@@H](CC(=O)O)C(=O)N[C@@H](Cc3c[nH]c4ccccc34)C(=O)N[C@@H](CO)C(=O)N[C@@H]([C@@H](C)O)C(=O)N3CCC[C@H]3C(=O)N3C[C@H](O)C[C@H]3C(=O)N[C@@H](Cc3c[nH]c4ccccc34)C(=O)N[C@H](C(N)=O)CSCCC5=O)NC(=O)[C@H](CCCCNC(=N)N)NC2=O)C(C)C)cc1)C(C)C [Acetate salt of PDC_1] (I: [Sar][Sar][Sar][Sar][Sar][Sar][Sar][Sar][Sar][Sar]K[hArg]DCP[1Nal][dD][Pen]M[hArg]DWSTP[Hyp]WC-NH2 / II: V[Cit][PABC][NMeV]V[Dil][Dolaproine]-X1; lactam I:11-I:13; linker I:14-I:18-I:28 via TATA; linker I:N-II:N via X2) | 1.4 |  |  |  |  |
| CC[C@H](C)[C@@H]([C@@H](CC(=O)N1CCC[C@H]1[C@H](OC)[C@@H](C)C(=O)N[C@H](C)[C@@H](O)c1ccccc1)OC)N(C)C(=O)[C@@H](NC(=O)[C@H](C(C)C)N(C)C(=O)OCc1ccc(NC(=O)[C@H](CCCNC(N)=O)NC(=O)[C@@H](NC(=O)CCCC(=O)NCCC(=O)N(C)CC(=O)N(C)CC(=O)N(C)CC(=O)N(C)CC(=O)N(C)CC(=O)N(C)CC(=O)N(C)CC(=O)N(C)CC(=O)N(C)CC(=O)N(C)CC(=O)N[C@H]2CCCCNC(=O)C[C@@H](C(=O)N[C@H]3CSCCC(=O)N4CN5CN(C4)C(=O)CCSC(C)(C)[C@H](NC(=O)[C@@H](CC(=O)O)NC(=O)[C@H](Cc4cccc6ccccc46)NC(=O)[C@@H]4CCCN4C3=O)C(=O)N[C@@H](CCSC)C(=O)N[C@@H](CCCCNC(=N)N)C(=O)N[C@@H](CC(=O)O)C(=O)N[C@@H](Cc3c[nH]c4ccccc34)C(=O)N[C@@H](CO)C(=O)N[C@@H]([C@@H](C)O)C(=O)N3CCC[C@H]3C(=O)N3C[C@H](O)C[C@H]3C(=O)N[C@@H](Cc3c[nH]c4ccccc34)C(=O)N[C@H](C(N)=O)CCSCCC5=O)NC(=O)CN(C)C2=O)C(C)C)cc1)C(C)C [Acetate salt of PDC_3] (I: [Sar][Sar][Sar][Sar][Sar][Sar][Sar][Sar][Sar][Sar]K[Sar]DCP[1Nal][dD][Pen]M[hArg]DWSTP[Hyp]W[hCys]-NH2 / II: V[Cit][PABC][NMeV]V[Dil][Dolaproine]-X1; lactam I:11-I:13; linker I:14-I:18-I:28 via TATA; linker I:N-II:N via X2) | 4.13 |  |  |  |  |
| CC[C@H](C)[C@@H]([C@@H](CC(=O)N1CCC[C@H]1[C@H](OC)[C@@H](C)C(=O)N[C@H](C)[C@@H](O)c1ccccc1)OC)N(C)C(=O)[C@@H](NC(=O)[C@@H](NC)C(C)C)C(C)C [MMAE, monomethyl auristatin E] (H-[NMeV]V[Dil][Dolaproine]-X1) |  | about 1/40 | 0.11 | 70 | lower MMAE release in blood than a detection limit |

From patent US12539335B2, “Tricyclic polypeptide conjugated drug and use thereof” (CONJUSTAR (ZHUHAI) BIOLOGICS CO., LTD., priority 2021, dated 2026)
